Laboratory results taken from paper PMC3083654, “Cytotoxic and Antimicrobial Activity of Pseudopterosins and seco-Pseudopterosins Isolated from the Octocoral Pseudopterogorgia elisabethae of San Andrés and Providencia Islands (Southwest Caribbean Sea)” (Marine Drugs, 2011).
Read-outs that look alike come from different tables or passages of the source.

Tests used:
[1] = system: HeLa (cervical cancer); experiment: MTT cytotoxic assay, HeLa; assay type: cell-based; details: Homo sapiens, 48 h
Method: (§1) The cell lines HeLa (cervical cancer), PC-3 (prostate cancer), HCT116 (colorectal cancer), MCF-7 (breast cancer) and normal human cell line BJ (skin fibroblasts) were used and maintained in DMEM with 5% of FBS and gentamicin 50 μg/mL. Cultures were held in 75 cm^2 culture flasks at 37 °C, 5% CO2 and 100% relative humidity, changing media at least twice a week.
(§2) Cells were harvested, counted, and transferred into 96 well plates and incubated for 24 h prior to the addition of the test compounds. Test sample solutions (10 μL) at the desired dilutions were added to the wells containing the cells and incubated for 48 h. Microtitration colorimetric method of MTT reduction was used to determine surviving cells at the end of the treatment period.
(§3) A solution of MTT (0.5 mg/mL) was prepared in PBS and 100 μL of this solution was added to each well after the removal of 100 μL of treatment solution. The plates were incubated at 37 °C for 4 h. The solution in each well, containing media, unmetabolized MTT, and dead cells, was removed by suction and 100 μL of DMSO was added to each well. The DMSO was mixed by pipetting and optical density was recorded using a BioTek Synergy HT microplate reader to measure the absorbance at 570 nm. Percentages of cell survival relative to vehicle control wells (wells containing only cells and DMSO) were calculated.
(§4) Stock solutions (5 mg/mL) were prepared by dissolving pure compounds in DMSO and storing at 4 °C. Serial dilutions with culture media were prepared just prior to addition to test plates. The concentration of DMSO in wells was consistent across dilutions at 0.38% v/v. Staurosporine was used as the positive control and vehicle (DMSO + media) as blank. Control and test compounds (PsG, PsP, PsQ, PsS, PsT, PsU, 3-O-Ac-PsU, seco-PsJ, seco-PsK and IMNGD) were assayed in duplicate for each concentration and replicated for each cell line at concentrations of 5000, 1000, 500, 100, 50, 10, 5 and 1 nM for staurosporine and 0.1, 0.5, 1.0, 2.5, 5.0, 7.5, 10.0, and 20.0 μg/mL for compounds.
(§5) Data were normalized and analyzed using non-linear regression to elucidate IC50 values from sigmoidal dose-response curves. Comparison between cell lines and microorganisms used extra sum-of-squares F test to evaluate IC50 between data sets. P < 0.05 was considered as indicative of significance using GraphPad Software, Prism V. 5.0.

[2] = system: PC-3 (prostate cancer); experiment: MTT cytotoxic assay, PC-3; assay type: cell-based; details: Homo sapiens, PC-3, 48 h
Method: as §1, §2, §3, §4, §5

[3] = system: HCT116 (colorectal cancer); experiment: MTT cytotoxic assay, HCT116; assay type: cell-based; details: Homo sapiens, HCT-116, HCT116, 48 h
Method: as §1, §2, §3, §4, §5

[4] = system: MCF-7 (breast cancer); experiment: MTT cytotoxic assay, MCF-7; assay type: cell-based; details: Homo sapiens, MCF7, 48 h
Method: as §1, §2, §3, §4, §5

[5] = system: BJ (skin fibroblasts); experiment: MTT cytotoxic assay, normal BJ cells; assay type: cell-based, human; details: 48 h
Method: as §1, §2, §3, §4, §5

[6] = system: Staphylococcus aureus ATCC 375; experiment: Antimicrobial microdilution assay, S. aureus; assay type: cell-based; details: ATCC375, 24 h
Method: (§6) Compounds isolated from P. elisabethae were tested against a panel of microorganisms including the bacteria Staphylococcus aureus ATCC 375, Enterococcus faecalis ATCC 10741, Pseudomonas aeruginosa ATCC 14210 and the yeast Candida albicans ATCC 14035. Bacterial strains were cultured in Luria-Bertani Broth (LB) and C. albicans was cultured in Sabouraud dextrose broth (SD), for 18 h at 37 °C and 220 rpm in a humidified incubator.
(§7) The antimicrobial activity was determined by a microdilution method (IC50) in 96-well microtiter plates using LB media for bacteria and SD media for the yeast seeded liquid media. In all cases, a pre-inoculated dilution was made with fresh broth. A volume of 180 μL of each microorganism suspension was inoculated in each well (10^5 cells/mL) and mixed with 20 μL of treatment solutions. Stock solutions were prepared by dissolving pure compounds and controls in 20% DMSO and storing at 4 °C. Penicillin G (S. aureus), vancomycin (E. faecalis), gentamicin (P. aeruginosa) and nystatin (C. albicans) were used as positive controls and vehicle (DMSO + media) as blank. The final DMSO concentration used for dissolving the extracts was less than 20%. Controls and test compounds (PsG, PsP, PsQ, PsS, PsT, PsU, 3-O-Ac-PsU, seco-PsJ, seco-PsK and IMNGD) were assayed in duplicate for each of the following concentrations: 64.0, 32.0, 16.0, 4.0, 1.0, 0.25 and 0.06 μg/mL.
(§8) Microplates were incubated for 24 h at 37 °C and optical density was recorded using a BioTek Synergy HT microplate reader to measure the absorbance at 600 nm. For each experiment, correction for background absorbance was made by subtracting the value for OD600 after the compounds were added (time 0 h). Percentages of microorganism survival relative to vehicle control wells (wells containing only microorganism and DMSO) were calculated. The IC50 of the controls were also determined in parallel experiments in order to control for the sensitivity of the standard test organisms.
as §5

[7] = system: Enterococcus faecalis ATCC 10741; experiment: Antimicrobial microdilution assay, E. faecalis; assay type: cell-based
Method: as §6, §7, §8, §5

[8] = Enterococcus faecalis, ATCC10741, E. faecalis, microdilution, 24 h, read-out: IC50 ± S.E

Compound | GI50 ([1]; footnote ** unit) [µM] | GI50 ([2]; footnote ** unit) [µM] | GI50 ([3]; footnote ** unit) [µM] | GI50 ([4]; footnote ** unit) [µM] | GI50 ([5]; Homo sapiens, Skin fibroblast, footnote ** unit) [µM] | GI50 [1] [µM] | GI50 [2] [µM] | GI50 [3] [µM] | GI50 [4] [µM] | GI50 [5] [µM] | GI50 ([5]; Homo sapiens, Skin fibroblast) [µM] | IC50 [6] [µM] | IC50 [7, 8] [µM] | IC50 ([7]; Enterococcus faecalis, ATCC10741, 24 h, read-out: IC50 ± S.E, E. faecalis, microdilution, 24 h) [µM] | IC50 ([7]; read-out: IC50 ± S.E, E. faecalis, microdilution, 24 h) [µM] | GI50 ([5]; listed as 3-O-acetyl-PsU) [µM]
CN[C@@H]1C[C@H]2O[C@@](C)([C@@H]1OC)n1c3ccccc3c3c4c(c5c6ccccc6n2c5c31)C(=O)NC4 [Staurosporine, staurosporine, reference compound] | 0.1056 ± 0.00041 | 0.06182 ± 0.00038 | 0.04556 ± 0.00045 | 0.1766 ± 0.00038 | 0.0136 ± 0.00035 |  |  |  |  |  |  |  |  |  |  | 
CC(C)=C[C@@H]1C[C@H](C)[C@H]2CC[C@H](C)c3c(O)c(O[C@@H]4OC[C@@H](O)[C@@H](O)[C@@H]4O)c(C)c1c32 [PsT] |  |  |  |  |  | 14.6 ± 0.35 | 22 ± 0.46 | 24.2 ± 0.42 | 14.7 ± 0.46 | 12.9 ± 0.37 | > 10 | 5.39 ± 0.25 | 4.38 ± 0.16 |  |  | 
CC(C)=CCC[C@H](C)[C@H]1CC[C@H](C)c2c1cc(C)c(O[C@@H]1OC[C@@H](O)[C@@H](O)[C@@H]1O)c2O [seco-PsJ] |  |  |  |  |  | 21.1 ± 0.37 | 37.2 ± 0.41 | 31.7 ± 0.32 | 28 ± 0.51 | 15 ± 0.35 | > 10 | 6.52 ± 0.12 | 4.08 ± 0.19 |  |  | 
CC(=O)O[C@H]1[C@@H](O)[C@H](O)[C@H](Oc2c(C)c3c4c(c2O)[C@@H](C)CC[C@@H]4[C@@H](C)C[C@H]3C=C(C)C)O[C@H]1C [PsQ] |  |  |  |  |  | 5.82 ± 0.33 | 7.81 ± 0.35 | 7.66 ± 0.27 | 8.44 ± 0.41 |  | 4.47 ± 0.31 | 3.3 ± 0.2 | 7.38 ± 0.16 |  |  | 
CN[C@H](CC(C)C)C(=O)N[C@H]1C(=O)N[C@@H](CC(N)=O)C(=O)N[C@H]2C(=O)N[C@H]3C(=O)N[C@H](C(=O)N[C@H](C(=O)O)c4cc(O)cc(O)c4-c4cc3ccc4O)[C@H](O)c3ccc(c(Cl)c3)Oc3cc2cc(c3O[C@@H]2O[C@H](CO)[C@@H](O)[C@H](O)[C@H]2O[C@H]2C[C@](C)(N)[C@H](O)[C@H](C)O2)Oc2ccc(cc2Cl)[C@H]1O [Vancomycin, vancomycin, reference compound] |  |  |  |  |  |  |  |  |  |  |  |  |  | 4.2 | 4.21 ± 0.11 | 
CC1(C)S[C@@H]2[C@H](NC(=O)Cc3ccccc3)C(=O)N2[C@H]1C(=O)O [Penicillin G, penicillin G, reference compound] |  |  |  |  |  |  |  |  |  |  |  | 1.61 ± 0.08 |  |  |  | 
CC(C)=CCC[C@H](C)[C@H]1CC[C@H](C)c2c1cc(C)c(O[C@@H]1O[C@@H](C)[C@@H](O)[C@@H](O)[C@@H]1O)c2O [seco-PsK] |  |  |  |  |  | 15.8 ± 0.18 | 13.6 ± 0.38 | 13.3 ± 0.27 | 11.5 ± 0.36 |  | 8.28 ± 0.29 | 4.2 ± 0.16 | 3.82 ± 0.21 |  |  | 
CC(=O)OC1COC(Oc2c(C)c3c4c(c2O)C(C)CCC4C(C)CC3C=C(C)C)C(O)C1OC(C)=O (centres unmarked) [3-O-Ac-PsU] |  |  |  |  |  | 44.61 ± 0.35 | 26.4 ± 0.31 | 20.5 ± 0.48 | 83.93 ± 0.39 | 62.03 ± 0.45 |  | 20.23 ± 0.19 | 7.64 ± 0.16 |  |  | > 10
CC(=O)OC1COC(Oc2c(C)c3c4c(c2O)C(C)CCC4C(C)CC3C=C(C)C)C(O)C1O (centres unmarked) [PsU] |  |  |  |  |  | 15.6 ± 0.32 | 24.8 ± 0.34 | 23.4 ± 0.4 | 26.5 ± 0.46 |  | 9.35 ± 0.34 | 2.97 ± 0.17 | 3.19 ± 0.25 |  |  | 
CC(=O)O[C@@H]1[C@H](Oc2c(C)c3c4c(c2O)[C@@H](C)CC[C@@H]4[C@@H](C)C[C@H]3C=C(C)C)O[C@@H](C)[C@@H](O)[C@H]1O [PsS] |  |  |  |  |  | 13.8 ± 0.39 | 52.05 ± 0.31 | 33.5 ± 0.33 | 26.2 ± 0.45 |  |  | 3.89 ± 0.23 | 20.2 ± 0.25 |  |  | 
CC(C)=C[C@@H]1C[C@H](C)[C@H]2CC[C@H](C)c3c(O[C@@H]4O[C@@H](C)[C@@H](O)[C@@H](O)[C@@H]4O)c(O)c(C)c1c32 [PsG] |  |  |  |  |  | 9.22 ± 0.45 | 8.83 ± 0.54 | 12 ± 0.36 | 9.42 ± 0.43 |  | 7.62 ± 0.38 | 4.48 ± 0.18 | 3.14 ± 0.22 |  |  | 
CC(C)=C[C@@H]1C[C@H](C)[C@H]2CC[C@H](C)c3c(O)c(O[C@@H]4O[C@@H](C)[C@@H](O)[C@@H](O)[C@@H]4O)c(C)c1c32 [PsP] |  |  |  |  |  | 10.3 ± 0.49 | 13.8 ± 0.58 | 17.9 ± 0.45 | 12.6 ± 0.45 | 10.4 ± 0.42 | > 10 | 14.9 ± 0.2 | 37.35 ± 0.29 |  |  | 
